Assay results from the supplement of paper PMC10307832.

How the values were obtained:
Test in all cases: relative viability (nuclei count vs DMSO), 5 days (fraction); higher = more cells survive
[1] = tested on: 201T
Procedure, shortened: (§1)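 The day after seeding in 1536-well plates, lung cancer cell lines were treated by pin tool with a single drug, or with a fixed anchor-drug dose together with five library-drug doses (not always all listed) in √10 steps. After 5 days, a combined fix-and-stain solution (final 0.05% Triton X-100, 1% formaldehyde, 1 ug/ml Hoechst) was added. Nuclei counted on 4× images gave relative viability as treated counts over vehicle counts, reported as the median of duplicate plates.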

[2] = tested on: ChaGo-K-1
Procedure, shortened: as §1

[3] = tested on: EKVX
Procedure, shortened: as §1

[4] = tested on: EMC-BAC-2
Procedure, shortened: as §1

[5] = tested on: HCC-44
Procedure, shortened: as §1

[6] = tested on: HCC-78
Procedure, shortened: as §1

[7] = tested on: HOP-62
Procedure, shortened: as §1

[8] = tested on: LC-2-ad
Procedure, shortened: as §1

[9] = tested on: LK-2
Procedure, shortened: as §1

[10] = tested on: NCI-H1355
Procedure, shortened: as §1

[11] = tested on: NCI-H2009
Procedure, shortened: as §1

[12] = tested on: NCI-H2228
Procedure, shortened: as §1

[13] = tested on: NCI-H2347
Procedure, shortened: as §1

[14] = tested on: NCI-H3122
Procedure, shortened: as §1

[15] = tested on: NCI-H838
Procedure, shortened: as §1

[16] = tested on: PC-14
Procedure, shortened: as §1

[17] = tested on: RERF-LC-KJ
Procedure, shortened: as §1

[18] = tested on: SK-MES-1
Procedure, shortened: as §1

[19] = tested on: SW 1573
Procedure, shortened: as §1

[20] = tested on: UMC-11
Procedure, shortened: as §1

Compound: COCC1(CO)C(=O)C2CCN1CC2 (centres undefined) [PRIMA-1MET] + CC1(C)CCC(c2ccc(Cl)cc2)=C(CN2CCN(c3ccc(C(=O)NS(=O)(=O)c4ccc(N[C@H](CCN5CCOCC5)CSc5ccccc5)c(S(=O)(=O)C(F)(F)F)c4)cc3)CC2)C1 [Navitoclax] (partner 0.5 µM)
- relative viability ([1]; first compound 0.2 µM): 1.31
- relative viability ([1]; first compound 0.6325 µM): 1.17
- relative viability ([1]; first compound 2 µM): 1.13
- relative viability ([1]; first compound 6.325 µM): 1.27
- relative viability ([1]; first compound 20 µM): 1.2
- relative viability ([2]; first compound 0.2 µM): 1.08
- relative viability ([2]; first compound 0.6325 µM): 0.667
- relative viability ([2]; first compound 2 µM): 1.11
- relative viability ([2]; first compound 6.325 µM): 1.11
- relative viability ([2]; first compound 20 µM): 0.404
- relative viability ([3]; first compound 0.2 µM): 1.03
- relative viability ([3]; first compound 0.6325 µM): 0.621
- relative viability ([3]; first compound 2 µM): 0.71
- relative viability ([3]; first compound 6.325 µM): 0.938
- relative viability ([3]; first compound 20 µM): 0.777
- relative viability ([4]; first compound 0.2 µM): 1.18
- relative viability ([4]; first compound 0.6325 µM): 1.16
- relative viability ([4]; first compound 2 µM): 1.13
- relative viability ([4]; first compound 6.325 µM): 1.25
- relative viability ([4]; first compound 20 µM): 1.15
- relative viability ([5]; first compound 0.2 µM): 1.05
- relative viability ([5]; first compound 0.6325 µM): 0.689
- relative viability ([5]; first compound 2 µM): 0.916
- relative viability ([5]; first compound 6.325 µM): 1.03
- relative viability ([5]; first compound 20 µM): 0.931
- relative viability ([6]; first compound 0.2 µM): 0.876
- relative viability ([6]; first compound 0.6325 µM): 0.77
- relative viability ([6]; first compound 6.325 µM): 0.787
- relative viability ([6]; first compound 20 µM): 0.0496
- relative viability ([7]; first compound 0.2 µM): 1.44
- relative viability ([7]; first compound 0.6325 µM): 1.01
- relative viability ([7]; first compound 2 µM): 0.94
- relative viability ([7]; first compound 6.325 µM): 0.962
- relative viability ([7]; first compound 20 µM): 0.839
- relative viability ([8]; first compound 0.2 µM): 0.483
- relative viability ([8]; first compound 0.6325 µM): 0.375
- relative viability ([8]; first compound 2 µM): 0.511
- relative viability ([8]; first compound 6.325 µM): 0.39
- relative viability ([8]; first compound 20 µM): 0.217
- relative viability ([9]; first compound 0.2 µM): 1.06
- relative viability ([9]; first compound 0.6325 µM): 0.771
- relative viability ([9]; first compound 2 µM): 0.617
- relative viability ([9]; first compound 6.325 µM): 0.726
- relative viability ([9]; first compound 20 µM): 0.133
- relative viability ([10]; first compound 0.2 µM): 1.08
- relative viability ([10]; first compound 0.6325 µM): 0.791
- relative viability ([10]; first compound 2 µM): 0.804
- relative viability ([10]; first compound 6.325 µM): 0.947
- relative viability ([10]; first compound 20 µM): 0.944
- relative viability ([11]; first compound 0.2 µM): 1.2
- relative viability ([11]; first compound 0.6325 µM): 1.23
- relative viability ([11]; first compound 2 µM): 1.23
- relative viability ([11]; first compound 6.325 µM): 1.16
- relative viability ([11]; first compound 20 µM): 0.302
- relative viability ([12]; first compound 0.2 µM): 0.9
- relative viability ([12]; first compound 0.6325 µM): 0.839
- relative viability ([12]; first compound 2 µM): 1.09
- relative viability ([12]; first compound 6.325 µM): 0.62
- relative viability ([12]; first compound 20 µM): 0.0661
- relative viability ([13]; first compound 0.2 µM): 0.887
- relative viability ([13]; first compound 0.6325 µM): 0.708
- relative viability ([13]; first compound 2 µM): 0.519
- relative viability ([13]; first compound 6.325 µM): 0.872
- relative viability ([13]; first compound 20 µM): 0.754
- relative viability ([14]; first compound 0.2 µM): 0.926
- relative viability ([14]; first compound 0.6325 µM): 1.02
- relative viability ([14]; first compound 2 µM): 1.05
- relative viability ([14]; first compound 6.325 µM): 1.01
- relative viability ([14]; first compound 20 µM): 0.976
- relative viability ([15]; first compound 0.2 µM): 1.38
- relative viability ([15]; first compound 0.6325 µM): 1.12
- relative viability ([15]; first compound 2 µM): 1.23
- relative viability ([15]; first compound 6.325 µM): 1.23
- relative viability ([15]; first compound 20 µM): 1.15
- relative viability ([16]; first compound 0.2 µM): 0.951
- relative viability ([16]; first compound 0.6325 µM): 0.932
- relative viability ([16]; first compound 2 µM): 0.936
- relative viability ([16]; first compound 6.325 µM): 1.03
- relative viability ([16]; first compound 20 µM): 0.929
- relative viability ([17]; first compound 0.2 µM): 1.33
- relative viability ([17]; first compound 0.6325 µM): 0.929
- relative viability ([17]; first compound 2 µM): 0.833
- relative viability ([17]; first compound 6.325 µM): 0.837
- relative viability ([17]; first compound 20 µM): 0.814
- relative viability ([18]; first compound 0.2 µM): 1.2
- relative viability ([18]; first compound 0.6325 µM): 1.28
- relative viability ([18]; first compound 2 µM): 1.19
- relative viability ([18]; first compound 6.325 µM): 1.27
- relative viability ([18]; first compound 20 µM): 1.23
- relative viability ([19]; first compound 0.2 µM): 1.12
- relative viability ([19]; first compound 0.6325 µM): 0.614
- relative viability ([19]; first compound 2 µM): 0.789
- relative viability ([19]; first compound 6.325 µM): 0.0618
- relative viability ([19]; first compound 20 µM): 0.034
- relative viability ([20]; first compound 0.2 µM): 0.347
- relative viability ([20]; first compound 0.6325 µM): 0.268
- relative viability ([20]; first compound 2 µM): 0.332
- relative viability ([20]; first compound 6.325 µM): 0.331
- relative viability ([20]; first compound 20 µM): 0.333
